Numbers after ± are expanded uncertainties.
Assay: xn = mol fraction of the nth substance listed
Settings: Liquid, Vibrating tube method

CCCCCCCCCC [decane] + COC(=O)OC
mass density [kg/m3]
Settings | x2 = 0.0676 | x2 = 0.2303 | x2 = 0.2934 | x2 = 0.4055 | x2 = 0.502 | x2 = 0.5476 | x2 = 0.665 | x2 = 0.7101 | x2 = 0.7993 | x2 = 0.9062
318.15 K, 40000 kPa | 748.36 ± 0.64 | 774.2 ± 0.62 | 786.19 ± 0.61 | 809.98 ± 0.59 | 834.42 ± 0.58 | 847.53 ± 0.58 | 886.65 ± 0.56 | 904.62 ± 0.56 | 944 ± 0.56 | 1004.15 ± 0.58
323.15 K, 100 kPa | 714.71 ± 0.44 | 738.81 ± 0.45 | 749.94 ± 0.46 | 772.41 ± 0.47 | 795.68 ± 0.48 | 808.16 ± 0.49 | 845.86 ± 0.51 | 862.69 ± 0.52 | 901.72 ± 0.54 | 960.79 ± 0.57
323.15 K, 10000 kPa | 723.36 ± 0.48 | 747.9 ± 0.48 | 759.3 ± 0.49 | 782.1 ± 0.49 | 805.66 ± 0.5 | 818.26 ± 0.51 | 856.25 ± 0.52 | 873.27 ± 0.53 | 912.4 ± 0.54 | 971.62 ± 0.57
323.15 K, 20000 kPa | 731.25 ± 0.53 | 756.2 ± 0.53 | 767.8 ± 0.53 | 790.9 ± 0.53 | 814.72 ± 0.53 | 827.41 ± 0.53 | 865.73 ± 0.54 | 882.95 ± 0.54 | 922.17 ± 0.55 | 981.53 ± 0.58
323.15 K, 30000 kPa | 738.46 ± 0.58 | 763.83 ± 0.57 | 775.53 ± 0.57 | 798.87 ± 0.56 | 822.91 ± 0.56 | 835.74 ± 0.55 | 874.34 ± 0.55 | 891.78 ± 0.55 | 931.08 ± 0.56 | 990.6 ± 0.58
323.15 K, 40000 kPa | 745.15 ± 0.64 | 770.85 ± 0.62 | 782.66 ± 0.61 | 806.24 ± 0.6 | 830.5 ± 0.58 | 843.43 ± 0.58 | 882.27 ± 0.57 | 899.97 ± 0.56 | 939.25 ± 0.56 | –
328.15 K, 100 kPa | 710.69 ± 0.44 | 734.47 ± 0.45 | 745.53 ± 0.46 | 767.74 ± 0.47 | 790.73 ± 0.48 | 803.07 ± 0.49 | 840.35 ± 0.51 | 857.01 ± 0.51 | 895.68 ± 0.53 | 954.3 ± 0.56
328.15 K, 10000 kPa | 719.66 ± 0.48 | 743.93 ± 0.48 | 755.2 ± 0.49 | 777.74 ± 0.49 | 801.04 ± 0.5 | 813.56 ± 0.51 | 851.18 ± 0.52 | 867.93 ± 0.53 | 906.86 ± 0.54 | 965.6 ± 0.57
328.15 K, 20000 kPa | 727.74 ± 0.53 | 752.49 ± 0.53 | 763.94 ± 0.53 | 786.78 ± 0.53 | 810.36 ± 0.53 | 822.99 ± 0.53 | 860.94 ± 0.54 | 877.85 ± 0.54 | 916.93 ± 0.55 | 975.83 ± 0.57
328.15 K, 30000 kPa | 735.12 ± 0.59 | 760.25 ± 0.57 | 771.85 ± 0.57 | 794.98 ± 0.56 | 818.78 ± 0.56 | 831.5 ± 0.55 | 869.79 ± 0.55 | 886.87 ± 0.55 | 926.1 ± 0.56 | 985.17 ± 0.58
328.15 K, 40000 kPa | 741.93 ± 0.65 | 767.41 ± 0.63 | 779.13 ± 0.62 | 802.5 ± 0.6 | 826.54 ± 0.59 | 839.36 ± 0.58 | 877.9 ± 0.57 | 895.22 ± 0.56 | 934.48 ± 0.56 | 993.79 ± 0.58

Source: the NIST ThermoML archive (doi:10.1021/je0342320)
